Test results reported in ChEMBL document CHEMBL1201862, “PubChem BioAssay data set” (2004).
Active and inactive are the calls of the source.

Key:
BJ [1] = assay: BJ-TERT-LT-ST fibroblast viability loss – cell-based, RAS-independent, luminescence, dose response (AID 1935); assay type: functional; conditions: Homo sapiens;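 note: BJ fibroblasts immortalized with TERT plus LT and ST oncogenes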
BJ [2] = assay: cells; assay type: functional, cell-based; conditions: Homo sapiens
[3] = DRD fibroblast viability loss – cell-based, non-viral oncogenic, luminescence, dose response (AID 1934); assay type: functional; conditions: Homo sapiens
J774.A1 = assay: Confirmation of image-based Screening Assay for Inhibitors of Phagocytosis. [Related pubchem assays (depositor defined):AID1029, AID1643]; assay type: functional, cell-based; conditions: Mus musculus
[4] = HEK-293T viability loss after treatment – luminescence, T-cell screen hits, cytotoxicity control for TCR NF-kB inhibitor project, dose response (AID 489026); assay type: functional, cell-based;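 note: cells exposed to compound about 14 hours before the viability readout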
BJ [5] = assay: BJ-TERT fibroblast viability loss – cell-based, RAS-independent, luminescence, dose response (AID 1933); assay type: functional; conditions: Homo sapiens
[6] = target: Melanin-concentrating hormone receptor 1 (Homo sapiens, UniProt Q99705); assay: Fluorescence-based counterscreen for antagonists of the G-protein coupled receptor 7 (GPR7): cell-based high throughput dose response assay to identify antagonists of the melanin-concentrating hormone receptor 1 (MCHR1).; assay type: functional
Melanin-concentrating hormone receptor 1, sequence (Q99705 whole entry): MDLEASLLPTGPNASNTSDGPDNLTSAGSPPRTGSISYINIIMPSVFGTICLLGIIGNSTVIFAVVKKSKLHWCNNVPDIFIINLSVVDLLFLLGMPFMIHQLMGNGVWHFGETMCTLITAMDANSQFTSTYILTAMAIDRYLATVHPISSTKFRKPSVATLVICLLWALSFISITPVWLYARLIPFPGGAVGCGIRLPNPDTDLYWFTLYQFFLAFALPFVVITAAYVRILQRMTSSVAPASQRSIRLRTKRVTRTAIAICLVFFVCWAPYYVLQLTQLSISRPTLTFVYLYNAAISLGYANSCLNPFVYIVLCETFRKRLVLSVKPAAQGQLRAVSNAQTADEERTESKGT

[7] = target: Heat shock protein HSP 90-alpha (Homo sapiens, UniProt P07900); assay type: functional, organism-based
[8] = target: T1, Neuropeptides B/W receptor type 1 (Homo sapiens, UniProt P48145); assay: Fluorescence-based dose response cell-based high throughput screening assay to identify antagonists of the G-protein coupled receptor 7 (GPR7). [Related pubchem assays: 1952 (Screening assay (GPR7 antagonists).), 1880 (Summary AID.)]; assay type: functional
T1 sequence (P48145 whole entry): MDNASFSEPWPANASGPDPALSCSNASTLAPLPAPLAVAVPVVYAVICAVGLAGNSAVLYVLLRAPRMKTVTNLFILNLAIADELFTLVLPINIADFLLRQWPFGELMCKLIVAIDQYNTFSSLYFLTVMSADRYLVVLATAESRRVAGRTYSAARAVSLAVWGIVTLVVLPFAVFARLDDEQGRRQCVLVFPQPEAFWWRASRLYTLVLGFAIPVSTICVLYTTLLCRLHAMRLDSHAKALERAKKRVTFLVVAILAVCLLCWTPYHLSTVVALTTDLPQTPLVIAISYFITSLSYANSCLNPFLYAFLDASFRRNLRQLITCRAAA

[9] = target: T2, Eukaryotic translation initiation factor 2-alpha kinase 3 (Homo sapiens, UniProt Q9NZJ5); assay: Dose response cell-based high-throughput screening assay to measure PERK inhibition. [Related pubchem assays: 1416 ]; assay type: functional
T2 sequence (Q9NZJ5 whole entry): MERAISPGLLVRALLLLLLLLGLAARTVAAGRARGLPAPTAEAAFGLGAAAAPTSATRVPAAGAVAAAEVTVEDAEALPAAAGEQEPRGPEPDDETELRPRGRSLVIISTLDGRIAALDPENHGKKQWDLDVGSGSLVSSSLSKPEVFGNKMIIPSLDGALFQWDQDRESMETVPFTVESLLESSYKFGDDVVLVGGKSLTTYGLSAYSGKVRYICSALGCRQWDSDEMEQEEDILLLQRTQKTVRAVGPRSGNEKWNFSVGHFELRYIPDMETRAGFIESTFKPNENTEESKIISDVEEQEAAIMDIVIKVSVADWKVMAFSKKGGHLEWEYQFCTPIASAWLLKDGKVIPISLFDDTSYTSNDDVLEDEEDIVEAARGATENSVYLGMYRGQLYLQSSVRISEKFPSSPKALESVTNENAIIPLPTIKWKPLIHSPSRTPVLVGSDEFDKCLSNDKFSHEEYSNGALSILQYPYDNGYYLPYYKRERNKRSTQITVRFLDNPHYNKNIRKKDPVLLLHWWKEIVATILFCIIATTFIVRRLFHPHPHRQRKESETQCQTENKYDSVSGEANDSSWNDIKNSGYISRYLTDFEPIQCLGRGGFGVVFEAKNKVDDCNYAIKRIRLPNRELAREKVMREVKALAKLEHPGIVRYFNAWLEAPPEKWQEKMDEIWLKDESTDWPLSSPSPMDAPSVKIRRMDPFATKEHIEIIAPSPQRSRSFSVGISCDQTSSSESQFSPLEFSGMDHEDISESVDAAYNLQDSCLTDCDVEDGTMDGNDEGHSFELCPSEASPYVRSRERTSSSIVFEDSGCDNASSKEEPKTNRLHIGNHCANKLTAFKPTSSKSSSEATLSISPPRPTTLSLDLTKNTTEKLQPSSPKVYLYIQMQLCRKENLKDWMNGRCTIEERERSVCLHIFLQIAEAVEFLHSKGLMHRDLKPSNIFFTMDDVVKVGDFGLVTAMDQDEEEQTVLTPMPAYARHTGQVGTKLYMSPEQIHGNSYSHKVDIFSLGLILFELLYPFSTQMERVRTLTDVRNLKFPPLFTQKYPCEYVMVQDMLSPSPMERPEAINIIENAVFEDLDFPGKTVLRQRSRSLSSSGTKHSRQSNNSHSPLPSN

[10] = target: T2, Eukaryotic translation initiation factor 2-alpha kinase 3; assay: Counterscreen assay for PERK inhibitors: Dose response cell-based high throughput screening assay to measure inhibition of PERK at 6 hours. [Related pubchem assays: 1522, 1416 ]; assay type: functional
[11] = target: T3, Zinc finger protein mex-5 (Caenorhabditis elegans, UniProt Q9XUB2); assay: potency of MEX-5 RNA-binding blockers – biochemical, C. elegans, fluorescence polarization, dose response (AID 1960)
T3 sequence (Q9XUB2 whole entry): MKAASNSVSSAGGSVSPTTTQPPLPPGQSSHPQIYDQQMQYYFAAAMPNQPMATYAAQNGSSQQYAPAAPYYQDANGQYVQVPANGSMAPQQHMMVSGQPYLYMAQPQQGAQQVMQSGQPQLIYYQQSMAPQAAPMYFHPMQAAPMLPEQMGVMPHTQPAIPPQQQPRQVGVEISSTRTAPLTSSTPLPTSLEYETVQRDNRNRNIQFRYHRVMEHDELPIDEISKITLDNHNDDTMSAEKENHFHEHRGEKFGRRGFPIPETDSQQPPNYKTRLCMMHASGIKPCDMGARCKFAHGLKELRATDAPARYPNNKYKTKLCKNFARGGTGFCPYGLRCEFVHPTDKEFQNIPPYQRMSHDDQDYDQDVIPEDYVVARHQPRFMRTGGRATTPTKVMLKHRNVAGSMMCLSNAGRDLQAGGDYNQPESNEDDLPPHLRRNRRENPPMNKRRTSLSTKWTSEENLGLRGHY

[12] = target: T4, Polyadenylate-binding protein 1 (Homo sapiens, UniProt P11940); assay: MLLE binding blockers, Cy5 peptide tracer – biochemical, fluorescence polarization, Cy5-PAM2 peptide, secondary, miRNA deadenylation inhibitor project, dose response (AID 602260); assay type: functional; conditions: read-out: IC50_Mean
T4 sequence (P11940 whole entry): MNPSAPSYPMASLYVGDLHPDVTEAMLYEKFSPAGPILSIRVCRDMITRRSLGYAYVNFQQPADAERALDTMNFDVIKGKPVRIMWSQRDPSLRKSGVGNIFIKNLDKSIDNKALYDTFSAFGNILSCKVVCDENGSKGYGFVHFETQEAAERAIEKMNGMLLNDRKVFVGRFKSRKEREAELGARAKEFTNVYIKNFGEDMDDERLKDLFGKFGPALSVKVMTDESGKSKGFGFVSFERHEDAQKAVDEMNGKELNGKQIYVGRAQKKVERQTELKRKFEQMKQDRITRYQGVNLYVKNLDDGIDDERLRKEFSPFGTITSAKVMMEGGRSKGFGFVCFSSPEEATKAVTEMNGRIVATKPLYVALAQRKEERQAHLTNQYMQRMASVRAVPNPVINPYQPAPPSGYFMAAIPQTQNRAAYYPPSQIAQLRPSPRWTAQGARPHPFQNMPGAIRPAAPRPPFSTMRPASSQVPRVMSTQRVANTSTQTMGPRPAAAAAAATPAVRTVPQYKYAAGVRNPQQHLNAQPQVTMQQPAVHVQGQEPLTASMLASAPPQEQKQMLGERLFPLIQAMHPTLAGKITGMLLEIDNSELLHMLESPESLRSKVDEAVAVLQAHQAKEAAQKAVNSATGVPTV

[13] = target: T5, Heat shock 70 kDa protein 1A (Homo sapiens, UniProt P0DMV8); assay: small-molecule inhibition of Hsp70 – biochemical, TR-FRET (AID 786)
T5 sequence (P0DMV8 whole entry): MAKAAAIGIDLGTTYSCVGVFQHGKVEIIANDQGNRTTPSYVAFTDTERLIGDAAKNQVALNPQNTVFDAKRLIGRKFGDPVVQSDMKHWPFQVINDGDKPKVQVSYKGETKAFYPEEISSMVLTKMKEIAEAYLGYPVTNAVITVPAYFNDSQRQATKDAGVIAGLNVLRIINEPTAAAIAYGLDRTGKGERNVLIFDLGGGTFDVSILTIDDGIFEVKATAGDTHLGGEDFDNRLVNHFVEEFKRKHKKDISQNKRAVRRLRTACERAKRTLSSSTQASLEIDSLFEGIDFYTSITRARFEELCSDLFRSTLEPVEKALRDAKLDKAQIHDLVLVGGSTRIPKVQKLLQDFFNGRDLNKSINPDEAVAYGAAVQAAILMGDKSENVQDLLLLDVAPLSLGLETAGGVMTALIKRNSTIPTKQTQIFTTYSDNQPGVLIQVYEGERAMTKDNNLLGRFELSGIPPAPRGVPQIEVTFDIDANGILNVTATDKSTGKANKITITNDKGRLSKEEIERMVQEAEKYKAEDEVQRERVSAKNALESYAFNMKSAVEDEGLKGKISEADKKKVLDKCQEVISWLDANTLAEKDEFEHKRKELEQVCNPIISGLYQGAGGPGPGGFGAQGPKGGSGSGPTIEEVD

[14] = viability loss in HepG2 liver cells – cell-based, ATP luminescence, cherry-pick, set 6, cytotoxicity control, dose response (AID 1053125); assay type: functional
[15] = target: T4, Polyadenylate-binding protein 1; assay: MLLE domain peptide-binding blockers, IC50 – biochemical, fluorescence polarization, FITC-PAM2 peptide, dose response (AID 602259); assay type: functional; conditions: read-out: IC50_Mean
Protein Rev = target: T6, Protein Rev (Human immunodeficiency virus type 1 group M subtype B (isolate HXB2)(HIV-1), UniProt P04618); assay: blockers of HIV Rev/RRE RNA complex – biochemical, fluorescence polarization, HIV-1, dose response (AID 434976); parameters: species or system Human immunodeficiency virus 1
T6 sequence (P04618 whole entry): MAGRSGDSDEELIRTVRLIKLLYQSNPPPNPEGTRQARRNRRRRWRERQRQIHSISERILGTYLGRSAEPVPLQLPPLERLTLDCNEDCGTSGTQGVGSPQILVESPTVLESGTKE

[16] = target: T7, RNA-binding protein pos-1 (Caenorhabditis elegans, UniProt G5EF15); assay: disruptors of C. elegans POS-1 RNA interaction – biochemical, fluorescence polarization, dose response (AID 1964);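 note: purified POS-1 fused to maltose binding protein made in E. coli; potency of compounds blocking POS-1 binding to fluorescent RNA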
T7 sequence (G5EF15 whole entry): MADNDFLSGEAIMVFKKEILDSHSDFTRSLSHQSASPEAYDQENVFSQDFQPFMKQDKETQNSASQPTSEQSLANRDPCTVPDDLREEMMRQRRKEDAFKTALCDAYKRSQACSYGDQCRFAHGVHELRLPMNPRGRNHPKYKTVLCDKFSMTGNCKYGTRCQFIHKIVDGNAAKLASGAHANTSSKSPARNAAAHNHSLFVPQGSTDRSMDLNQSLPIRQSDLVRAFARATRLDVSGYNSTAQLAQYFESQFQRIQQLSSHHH

[17] = target: T5, Heat shock 70 kDa protein 1A; assay: small molecules displacing fluorescent ligand from Hsp70 – biochemical, fluorescence polarization, primary screen (AID 583)
[18] = target: T8, Female germline-specific tumor suppressor gld-1 (Caenorhabditis elegans, UniProt Q17339); assay: blockers of GLD-1/TGE RNA complex formation – biochemical, fluorescence polarization, C. elegans, dose response (AID 2802);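 note: fluorescence polarization of labeled TGE RNA bound by purified gld-1 protein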
T8 sequence (Q17339 whole entry): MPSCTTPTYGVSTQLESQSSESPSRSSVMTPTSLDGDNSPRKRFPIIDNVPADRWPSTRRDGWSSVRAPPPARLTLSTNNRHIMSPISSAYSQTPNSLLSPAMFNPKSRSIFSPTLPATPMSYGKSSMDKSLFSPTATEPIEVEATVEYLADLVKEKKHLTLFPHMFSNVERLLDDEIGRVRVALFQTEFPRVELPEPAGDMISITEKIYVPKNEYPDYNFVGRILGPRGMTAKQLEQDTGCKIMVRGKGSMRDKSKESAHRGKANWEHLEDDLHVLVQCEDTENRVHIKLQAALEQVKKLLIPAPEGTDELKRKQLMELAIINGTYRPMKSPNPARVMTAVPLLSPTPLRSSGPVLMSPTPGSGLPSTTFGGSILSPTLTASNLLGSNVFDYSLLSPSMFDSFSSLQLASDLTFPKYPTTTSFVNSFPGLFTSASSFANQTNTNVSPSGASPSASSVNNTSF

[19] = target: Lysosomal acid glucosylceramidase (Homo sapiens, UniProt P04062); assay: Dose response cell-based high throughput screening assay to identify enhancers of beta-glucosidase activity. [Related pubchem assays: 784 ]; assay type: functional
Lysosomal acid glucosylceramidase, sequence (P04062 whole entry): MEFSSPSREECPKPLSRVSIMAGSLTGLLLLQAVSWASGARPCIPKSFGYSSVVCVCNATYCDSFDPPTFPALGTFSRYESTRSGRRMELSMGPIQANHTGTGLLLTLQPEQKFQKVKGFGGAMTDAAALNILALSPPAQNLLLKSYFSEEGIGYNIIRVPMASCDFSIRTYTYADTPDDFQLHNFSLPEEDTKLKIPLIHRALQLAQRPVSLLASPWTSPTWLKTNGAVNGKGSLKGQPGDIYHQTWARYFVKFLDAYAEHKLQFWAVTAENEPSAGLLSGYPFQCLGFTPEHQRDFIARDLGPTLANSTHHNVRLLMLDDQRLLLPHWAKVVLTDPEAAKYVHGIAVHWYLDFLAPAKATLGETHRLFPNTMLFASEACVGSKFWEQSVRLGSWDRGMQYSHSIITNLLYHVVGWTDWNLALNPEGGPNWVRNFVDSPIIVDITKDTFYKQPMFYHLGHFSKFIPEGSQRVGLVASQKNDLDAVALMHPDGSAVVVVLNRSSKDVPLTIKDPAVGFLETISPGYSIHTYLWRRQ

cells = assay type: functional, cell-based
[20] = alpha-synuclein stem-loop translation blockers – luminescence, H4 neuroglioblastoma cells, dose confirmation, confirmation (AID 2454); assay type: functional, cell-based;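 note: H4 neuroglioblastoma cells carrying an alpha-synuclein 5'UTR luciferase reporter; potency for inhibition of the luciferase signal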
[21] = luciferase reporter signal suppression in cells – H4 neuroglioma cells, luminescence, dose response (AID 1990); assay type: functional, cell-based
[22] = luciferase reporter signal reduction – luminescence, H4-C neuroglioblastoma cells, dose response (AID 2458); assay type: functional, cell-based;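 note: H4 neuroglioblastoma cells stably carrying a luciferase reporter gene fusion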
[23] = alpha-synuclein stem-loop luciferase translation blockers – H4 neuroglioma cells, luminescence, confirmation (AID 1988); assay type: functional, cell-based

Structure (SMILES): Cc1ccc(C(=O)c2cc([N+](=O)[O-])ccc2N2CCOCC2)c(C)c1
- EC50 (BJ [1]): 0.78 µM (inconclusive)
- EC50 (BJ [2]): 14.2 µM (active)
- EC50 [3]: 0.637 µM (active)
- IC50 (J774.A1): < 0.05 µM (inactive)
- IC50 [4]: > 80 µM (inactive)
- EC50 (BJ [5]): 0.764 µM (active)

Structure (SMILES): Cc1ccc(N2C(=O)C3C4C=CC(CN=C(S)Nc5ccc(Cl)cc5)(O4)C3C2=O)cc1 (configuration not stated)
- IC50 [6]: 18.9 µM (not active)
- AC50 [7]: 25.4 µM (active)
- IC50 [8]: 42.8 µM (not active)

Structure (SMILES): O/N=C/c1ccc2cccc(O)c2n1
- EC50 [9]: > 55.7 µM (not active)
- EC50 [10]: > 55.7 µM (not active)

Structure (SMILES): Nc1cccc2c1C(=O)N(c1ccccc1)C2=O
- EC50 [11]: 10.5 µM (active)
- IC50 [12]: > 66 µM (inactive)
- IC50 [13]: > 100 µM (not active)
- AC50 [14]: > 52 µM (inactive)
- IC50 [15]: 24 µM (inactive)
- IC50 (Protein Rev): 7.86 µM (active)
- EC50 [16]: 17 µM (active)
- IC50 [17]: 12.4 µM (active)
- IC50 [18]: 2.9 µM (active)

Structure (SMILES): CC1(C)CC(=O)N(CC(=O)O)c2ccccc2S1
- EC50 [19]: > 50 µM (not active)

Structure (SMILES): CCOC(=O)C(C)Oc1cccc2c(=O)n(CC(=O)NCc3ccc(F)cc3)ccc12 (configuration not stated)
- EC50 (cells): 1.67 µM (active)
- EC50 [20]: > 12 µM (inconclusive)
- EC50 [21]: 0.3 µM (active)
- EC50 [22]: > 12 µM (not active)
- EC50 [23]: < 0.1 µM (active)
- IC50 [4]: > 80 µM (inactive)
